Measured values taken from patent US20220204476A1, “RNA VIRUS INHIBITOR COMPOUNDS AND USES THEREOF” (The Governors of the University of Alberta, priority 2020, published 2022).
pEC50, pIC50: −log10 of the molar value. Where two headings read alike, the source gives them in different places.

Assays:
SARS-CoV-2 3CLP = SARS-CoV-2 3CLP (Severe acute respiratory syndrome coronavirus 2, UniProt P0DTD1); test: SARS-CoV-2 3CLP inhibition, FRET-based cleavage assay; type: biochemical; details: 100 μM substrate, 37° C., 10 min incubation, pH 7.8
SARS-CoV-2 = SARS-CoV-2 in vitro plaque reduction assay in Vero E6 cells; type: cell-based; details: plaques counted after 48 h, >5 μM = did not reduce plaque numbers by half at 10 μM, read-out: SARS-CoV-2 Antiviral EC50
[1] = 80 nM SARS-CoV-2 3CLP, read-out: 3CL Protease IC50
[2] = Severe acute respiratory syndrome coronavirus 2, Vero C1008, MOI 0.0001 pfu/cell
[3] = 3CL Protease IC50, 80 nM SARS-CoV-2 3CLP

Compound | pIC50 (SARS-CoV-2 3CLP; [1]) | pEC50 (SARS-CoV-2; [2]) | pEC50 (SARS-CoV-2; MOI 0.0001 pfu/cell) | pIC50 (SARS-CoV-2 3CLP; [3])
CC(C)C[C@H](NCC1Cc2ccccc2O1)C(=O)N[C@H](C#N)C[C@@H]1CCCNC1=O (single isomer, unassigned) [Compound 96] | 4.34 | < 5.30 |  | 
CC(C)C[C@H](NCC1Cc2ccccc2O1)C(=O)N[C@H](C#N)C[C@@H]1CCCNC1=O (single isomer, unassigned) [Compound 97] | < 3.30 |  | < 5.30 | 
COc1cccc2[nH]c(C(=O)N[C@@H](CC(C)C)C(=O)N[C@@H](C[C@@H]3CCCNC3=O)C(=O)COC(=O)C(C)(C)C)cc12 [Compound 1, (3S)-3-{[N-(4-methoxy-1H-indole-2-carbonyl)-L-leucyl]amino}-2-oxo-4-[(3S)-2-oxopiperidin-3-yl]butyl 2,2-dimethylpropanoate] | 7.19 | < 5.30 |  | 
COc1cccc2[nH]c(C(=O)N[C@@H](CC(C)C)C(=O)N[C@@H](C[C@@H]3CCCNC3=O)C(=O)COC(=O)c3ccccc3)cc12 [Compound 2, (3S)-3-{[N-(4-methoxy-1H-indole-2-carbonyl)-L-leucyl]amino}-2-oxo-4-[(3S)-2-oxopiperidin-3-yl]butyl benzoate] | 7.19 | < 5.30 |  | 
COc1cccc2[nH]c(C(=O)N[C@@H](CC(C)C)C(=O)N[C@@H](C[C@@H]3CCCNC3=O)C(=O)COC(=O)c3ccccn3)cc12 [Compound 3, (3S)-3-{[N-(4-methoxy-1H-indole-2-carbonyl)-L-leucyl]amino}-2-oxo-4-[(3S)-2-oxopiperidin-3-yl]butyl pyridine-2-carboxylate] |  | < 5.30 |  | 6.89
COc1cccc2[nH]c(C(=O)N[C@@H](CC(C)C)C(=O)N[C@@H](C[C@@H]3CCCNC3=O)C(=O)COC(=O)c3cccnc3)cc12 [Compound 4, (3S)-3-{[N-(4-methoxy-1H-indole-2-carbonyl)-L-leucyl]amino}-2-oxo-4-[(3S)-2-oxopiperidin-3-yl]butyl pyridine-3-carboxylate] | 8.40 | < 5.30 |  | 
COc1cccc2[nH]c(C(=O)N[C@@H](CC(C)C)C(=O)N[C@@H](C[C@@H]3CCCNC3=O)C(=O)COC(=O)c3c(F)c(F)c(F)c(F)c3F)cc12 [Compound 7, (3S)-3-{[N-(4-methoxy-1H-indole-2-carbonyl)-L-leucyl]amino}-2-oxo-4-[(3S)-2-oxopiperidin-3-yl]butyl pentafluorobenzoate] |  | < 5.30 |  | 
COc1cccc2[nH]c(C(=O)N[C@@H](CC(C)C)C(=O)N[C@@H](C[C@@H]3CCCNC3=O)C(=O)COC(=O)c3ccncc3)cc12 [Compound 8, (3S)-3-{[N-(4-methoxy-1H-indole-2-carbonyl)-L-leucyl]amino}-2-oxo-4-[(3S)-2-oxopiperidin-3-yl]butyl pyridine-4-carboxylate] |  | < 5.30 |  | 
COc1cccc2[nH]c(C(=O)N[C@@H](CC(C)C)C(=O)N[C@@H](C[C@@H]3CCCNC3=O)C(=O)COC(=O)C3(C)COC(C)(C)OC3)cc12 [Compound 9, (3S)-3-{[N-(4-methoxy-1H-indole-2-carbonyl)-L-leucyl]amino}-2-oxo-4-[(3S)-2-oxopiperidin-3-yl]butyl 2,2,5-trimethyl-1,3-dioxane-5-carboxylate] | 7.26 | < 5.30 |  | 
COc1cccc2[nH]c(C(=O)N[C@@H](CC(C)C)C(=O)N[C@@H](C[C@@H]3CCCNC3=O)C(=O)COC(=O)c3cccnc3C(F)(F)F)cc12 [Compound 10, (3S)-3-{[N-(4-methoxy-1H-indole-2-carbonyl)-L-leucyl]amino}-2-oxo-4-[(3S)-2-oxopiperidin-3-yl]butyl 2-(trifluoromethyl)pyridine-3-carboxylate] | 7.28 | < 5.30 |  | 
COc1cccc2[nH]c(C(=O)N[C@@H](CC(C)C)C(=O)N[C@@H](C[C@@H]3CCCNC3=O)C(=O)COC(=O)c3ccc(C(C)(C)C)nc3)cc12 [Compound 11, (3S)-3-{[N-(4-methoxy-1H-indole-2-carbonyl)-L-leucyl]amino}-2-oxo-4-[(3S)-2-oxopiperidin-3-yl]butyl 6-tert-butylpyridine-3-carboxylate] | 7.72 | < 5.30 |  | 
COc1cccc2[nH]c(C(=O)N[C@@H](CC(C)C)C(=O)N[C@@H](C[C@@H]3CCCNC3=O)C(=O)COC(=O)C3(C#N)CC3)cc12 [Compound 12, (3S)-3-{[N-(4-methoxy-1H-indole-2-carbonyl)-L-leucyl]amino}-2-oxo-4-[(3S)-2-oxopiperidin-3-yl]butyl 1-cyanocyclopropane-1-carboxylate] | 7.80 | < 5.30 |  | 
COc1cccc2[nH]c(C(=O)N[C@@H](CC(C)C)C(=O)N[C@@H](C[C@@H]3CCCNC3=O)C(=O)COC(=O)C(C)(C)C#N)cc12 [Compound 14, (3S)-3-{[N-(4-methoxy-1H-indole-2-carbonyl)-L-leucyl]amino}-2-oxo-4-[(3S)-2-oxopiperidin-3-yl]butyl 2-cyano-2-methylpropanoate] | 7.66 | < 5.30 |  | 
COc1cccc2[nH]c(C(=O)N[C@@H](CC(C)C)C(=O)N[C@@H](C[C@@H]3CCCNC3=O)C(=O)COC(=O)C3(C(F)(F)F)CC3)cc12 [Compound 15, (3S)-3-{[N-(4-methoxy-1H-indole-2-carbonyl)-L-leucyl]amino}-2-oxo-4-[(3S)-2-oxopiperidin-3-yl]butyl 1-(trifluoromethyl)cyclopropane-1-carboxylate] | 7.39 | < 5.30 |  | 
COc1cccc2[nH]c(C(=O)N[C@@H](CC(C)C)C(=O)N[C@@H](C[C@@H]3CCCNC3=O)C(=O)COC(=O)C3(C)OCCCO3)cc12 [Compound 16, (3S)-3-{[N-(4-methoxy-1H-indole-2-carbonyl)-L-leucyl]amino}-2-oxo-4-[(3S)-2-oxopiperidin-3-yl]butyl 2-methyl-1,3-dioxane-2-carboxylate] |  | < 5.30 |  | 7.89
CC(C)C[C@H](NC(=O)C1CCCC1)C(=O)N[C@@H](C[C@@H]1CCCNC1=O)C(=O)COC(=O)c1cccnc1 [Compound 17, (3S)-3-{[N-(cyclopentanecarbonyl)-L-leucyl]amino}-2-oxo-4-[(3S)-2-oxopiperidin-3-yl]butyl pyridine-3-carboxylate] | 5.30 | < 5.30 |  | 
COc1cccc2[nH]c(C(=O)N[C@@H](CC(C)C)C(=O)N[C@@H](C[C@@H]3CCCNC3=O)C(=O)COC(=O)C3(C#N)CCCC3)cc12 [Compound 19, (3S)-3-{[N-(4-methoxy-1H-indole-2-carbonyl)-L-leucyl]amino}-2-oxo-4-[(3S)-2-oxopiperidin-3-yl]butyl 1-cyanocyclopentane-1-carboxylate] | 7.59 | < 5.30 |  | 
COc1cccc2[nH]c(C(=O)N[C@@H](CC(C)C)C(=O)N[C@@H](C[C@@H]3CCCNC3=O)C(=O)COC(=O)C3(C(F)(F)F)CCCCC3)cc12 [Compound 20, (3S)-3-{[N-(4-methoxy-1H-indole-2-carbonyl)-L-leucyl]amino}-2-oxo-4-[(3S)-2-oxopiperidin-3-yl]butyl 1-(trifluoromethyl)cyclohexane-1-carboxylate] | 7.07 | 6.15 |  | 
COc1cccc2[nH]c(C(=O)N[C@@H](CC(C)C)C(=O)N[C@@H](C[C@@H]3CCCNC3=O)C(=O)COC(=O)c3sc(C)nc3C(F)(F)F)cc12 [Compound 21, (3S)-3-{[N-(4-methoxy-1H-indole-2-carbonyl)-L-leucyl]amino}-2-oxo-4-[(3S)-2-oxopiperidin-3-yl]butyl 2-methyl-4-(trifluoromethyl)-1,3-thiazole-5-carboxylate] | 7.74 | < 5.30 |  | 
COc1cccc2[nH]c(C(=O)N[C@@H](CC(C)C)C(=O)N[C@@H](C[C@@H]3CCCNC3=O)C(=O)COC(=O)c3cnc(C)cc3C)cc12 [Compound 22, (3S)-3-{[N-(4-methoxy-1H-indole-2-carbonyl)-L-leucyl]amino}-2-oxo-4-[(3S)-2-oxopiperidin-3-yl]butyl 4,6-dimethylpyridine-3-carboxylate] | 7.77 | < 5.30 |  | 
COc1cccc2[nH]c(C(=O)N[C@@H](CC(C)C)C(=O)N[C@@H](C[C@@H]3CCCNC3=O)C(=O)COC(=O)c3c(C)cc(C)nc3C)cc12 [Compound 23, (3S)-3-{[N-(4-methoxy-1H-indole-2-carbonyl)-L-leucyl]amino}-2-oxo-4-[(3S)-2-oxopiperidin-3-yl]butyl 2,4,6-trimethylpyridine-3-carboxylate] |  |  |  | 7.44
COc1cccc2[nH]c(C(=O)N[C@@H](CC(C)C)C(=O)N[C@H](C#N)C[C@@H]3CCNC3=O)cc12 [Compound 24, N-[(2S)-1-({(1S)-1-cyano-2-[(3S)-2-oxopyrrolidin-3-yl]ethyl}amino)-4-methyl-1-oxopentan-2-yl]-4-methoxy-1H-indole-2-carboxamide] |  | < 5.30 |  | 
COc1cccc2[nH]c(C(=O)N[C@@H](CC(C)C)C(=O)N[C@@H](C[C@@H]3CCNC3=O)C(=O)COC(=O)c3c(C(F)(F)F)cc(C)nc3C)cc12 [Compound 26, (3S)-3-{[N-(4-methoxy-1H-indole-2-carbonyl)-L-leucyl]amino}-2-oxo-4-[(3S)-2-oxopyrrolidin-3-yl]butyl 2,6-dimethyl-4-(trifluoromethyl)pyridine-3-carboxylate] | 7.77 |  |  | 
COc1cccc2[nH]c(C(=O)N[C@@H](CC(C)C)C(=O)N[C@@H](C[C@@H]3CCCNC3=O)C(=O)COC(=O)c3c(C)nc(C)nc3C)cc12 [Compound 72, 3-{[N-(4-methoxy-1H-indole-2-carbonyl)leucyl]amino}-2-oxo-4-(2-oxopiperidin-3-yl)butyl 2,4,6-trimethylpyrimidine-5-carboxylate] | 7.66 |  |  | 
[2H]C1([2H])CC[C@@H](C[C@@H](C#N)NC(=O)[C@H](CC(C)(C)C)NC(=O)c2cc3c(OC)cccc3[nH]2)C(=O)N1 [Compound 104, N-[(2S)-1-({(1S)-1-cyano-2-[(3S)-2-oxo(6,6-d2)piperidin-3-yl]ethyl}amino)-4,4-dimethyl-1-oxopentan-2-yl]-4-methoxy-1H-indole-2-carboxamide] |  | < 5.30 |  | 
